Test results taken from ChEMBL document CHEMBL4507258 (2021).

What was measured:
[1] = target: 5-hydroxytryptamine receptor 2B (Homo sapiens, UniProt P41595); assay: GPCRScan assay: inhibition of 5-HT2B; design: radioligand conc. used [nm] 1.0 – 2.0, parental cells stable HEK
D(4) dopamine receptor = D(4) dopamine receptor (Homo sapiens, UniProt P21917); assay: GPCRScan assay: inhibition of D4; design: radioligand conc. used [nm] 0.6 – 1.7, parental cells Stable HEK
[2] = target: Sigma non-opioid intracellular receptor 1 (Homo sapiens, UniProt Q99720); assay: GPCRScan assay: inhibition of Sigma 1; design: radioligand conc. used [nm] 4.0 – 5.0, parental cells HEKT
[3] = target: 5-hydroxytryptamine receptor 1D (Homo sapiens) (UniProt P28221); conditions: Compound concentration 10.0 uM
Chain of 5-hydroxytryptamine receptor 1D (Homo sapiens) (P28221 whole entry): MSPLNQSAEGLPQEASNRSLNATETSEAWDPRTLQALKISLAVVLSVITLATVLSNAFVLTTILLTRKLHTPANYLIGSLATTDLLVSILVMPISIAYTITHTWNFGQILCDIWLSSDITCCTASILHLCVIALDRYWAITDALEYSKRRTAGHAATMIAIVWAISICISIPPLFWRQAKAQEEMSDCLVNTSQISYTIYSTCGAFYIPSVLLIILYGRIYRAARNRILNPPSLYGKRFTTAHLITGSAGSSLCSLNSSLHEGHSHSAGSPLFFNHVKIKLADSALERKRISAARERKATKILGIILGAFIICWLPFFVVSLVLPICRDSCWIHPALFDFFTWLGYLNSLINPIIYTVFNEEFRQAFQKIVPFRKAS

[4] = target: Alpha-2C adrenergic receptor (Homo sapiens) (UniProt P18825); conditions: Compound concentration 10.0 uM
Chain of Alpha-2C adrenergic receptor (Homo sapiens) (P18825 whole entry): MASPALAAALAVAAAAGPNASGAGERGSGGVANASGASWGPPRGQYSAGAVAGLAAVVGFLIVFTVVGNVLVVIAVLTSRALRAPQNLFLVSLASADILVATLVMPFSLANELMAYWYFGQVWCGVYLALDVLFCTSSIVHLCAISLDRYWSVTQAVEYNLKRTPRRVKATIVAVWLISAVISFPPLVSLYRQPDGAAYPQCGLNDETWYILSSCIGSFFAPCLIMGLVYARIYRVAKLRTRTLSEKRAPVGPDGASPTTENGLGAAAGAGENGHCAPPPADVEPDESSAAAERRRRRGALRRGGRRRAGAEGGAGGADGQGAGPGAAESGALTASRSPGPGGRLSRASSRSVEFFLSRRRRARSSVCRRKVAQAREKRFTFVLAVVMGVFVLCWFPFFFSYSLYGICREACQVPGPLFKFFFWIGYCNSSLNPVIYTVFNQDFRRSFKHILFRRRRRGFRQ

[5] = target: Death-associated protein kinase 3 (Homo sapiens, UniProt O43293); assay: Inhibition of DAPK3 at compound concentration of 10.0 uM using the ScanMax (DiscoverX)
Chain of Death-associated protein kinase 3 (O43293 whole entry): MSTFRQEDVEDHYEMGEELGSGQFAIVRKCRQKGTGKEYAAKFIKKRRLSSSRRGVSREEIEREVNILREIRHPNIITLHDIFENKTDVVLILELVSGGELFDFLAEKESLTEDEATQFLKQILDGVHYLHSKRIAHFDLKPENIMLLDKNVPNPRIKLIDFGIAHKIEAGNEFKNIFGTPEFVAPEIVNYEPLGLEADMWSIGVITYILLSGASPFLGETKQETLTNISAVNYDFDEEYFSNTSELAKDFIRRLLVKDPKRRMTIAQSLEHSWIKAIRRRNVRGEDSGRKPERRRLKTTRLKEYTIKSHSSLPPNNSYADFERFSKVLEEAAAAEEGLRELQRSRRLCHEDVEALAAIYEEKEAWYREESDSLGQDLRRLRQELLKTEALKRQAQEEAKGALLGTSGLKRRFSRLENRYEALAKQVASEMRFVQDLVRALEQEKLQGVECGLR

[6] = target: Adrenergic receptor alpha-1 (Homo sapiens) (UniProt P35348+P25100+P35368); assay: alpha1-adrenoceptor (non-selective) CEREP ligand profiling; assay type: protein assay; conditions: Compound concentration 10.0 uM
[7] = target: Type-1 angiotensin II receptor (Homo sapiens) (UniProt P30556); assay: Angiotensin AT1 receptor (h) CEREP ligand profiling; conditions: Compound concentration 10.0 uM
[8] = target: Calcitonin gene-related peptide type 1 receptor (Homo sapiens) (UniProt Q16602); assay: Calcitonin gene-related peptide CEREP ligand profiling; conditions: Compound concentration 10.0 uM
[9] = target: D(1B) dopamine receptor (Homo sapiens) (UniProt P21918); assay: Dopamine D5 receptor (h) CEREP ligand profiling; conditions: Compound concentration 10.0 uM
Chain of D(1B) dopamine receptor (Homo sapiens) (P21918 whole entry): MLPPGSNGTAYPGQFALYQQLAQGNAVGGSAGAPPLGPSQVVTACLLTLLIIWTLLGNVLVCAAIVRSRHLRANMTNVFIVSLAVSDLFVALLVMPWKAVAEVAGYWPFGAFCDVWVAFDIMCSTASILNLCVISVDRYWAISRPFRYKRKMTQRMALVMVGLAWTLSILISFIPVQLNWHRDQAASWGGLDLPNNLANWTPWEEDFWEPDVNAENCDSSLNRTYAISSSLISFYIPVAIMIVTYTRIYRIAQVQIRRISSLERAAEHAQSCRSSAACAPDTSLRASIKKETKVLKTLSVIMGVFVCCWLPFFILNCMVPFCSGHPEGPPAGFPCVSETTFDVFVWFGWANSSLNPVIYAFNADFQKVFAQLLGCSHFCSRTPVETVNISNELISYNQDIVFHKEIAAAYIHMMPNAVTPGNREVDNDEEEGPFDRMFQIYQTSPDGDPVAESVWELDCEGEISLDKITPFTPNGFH

[10] = target: Interleukin-1 beta (Homo sapiens) (UniProt P01584); assay: Interleukin-1beta CEREP ligand profiling; conditions: Compound concentration 10.0 uM
Chain of Interleukin-1 beta (Homo sapiens) (P01584 117-269 limits assumed): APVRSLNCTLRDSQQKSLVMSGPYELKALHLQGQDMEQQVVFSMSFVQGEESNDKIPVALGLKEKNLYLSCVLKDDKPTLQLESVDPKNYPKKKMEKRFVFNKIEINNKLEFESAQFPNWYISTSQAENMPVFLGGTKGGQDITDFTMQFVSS

[11] = target: Melatonin receptor type 1A (Homo sapiens) (UniProt P48039); assay: Melatonin ML1 receptor CEREP ligand profiling; conditions: Compound concentration 10.0 uM
Chain of Melatonin receptor type 1A (Homo sapiens) (P48039 whole entry): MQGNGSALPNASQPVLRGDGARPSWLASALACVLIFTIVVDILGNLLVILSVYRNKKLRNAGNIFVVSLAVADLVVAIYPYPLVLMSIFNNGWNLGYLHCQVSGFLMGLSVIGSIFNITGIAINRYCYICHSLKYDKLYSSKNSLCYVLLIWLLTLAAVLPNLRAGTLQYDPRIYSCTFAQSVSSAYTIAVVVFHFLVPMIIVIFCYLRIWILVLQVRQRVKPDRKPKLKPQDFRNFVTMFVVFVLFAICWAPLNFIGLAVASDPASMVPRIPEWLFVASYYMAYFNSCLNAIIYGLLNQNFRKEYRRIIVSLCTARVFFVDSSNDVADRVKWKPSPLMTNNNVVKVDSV

[12] = target: Muscarinic acetylcholine receptor M1 (Homo sapiens) (UniProt P11229); assay: Muscarinic M1 receptors (h) CEREP ligand profiling; conditions: Compound concentration 10.0 uM
[13] = target: T1, Muscarinic acetylcholine receptor M2 (Homo sapiens) (UniProt P08172); assay: Muscarinic M2 receptors (h) CEREP ligand profiling; conditions: Compound concentration 10.0 uM
T1 sequence (whole entry): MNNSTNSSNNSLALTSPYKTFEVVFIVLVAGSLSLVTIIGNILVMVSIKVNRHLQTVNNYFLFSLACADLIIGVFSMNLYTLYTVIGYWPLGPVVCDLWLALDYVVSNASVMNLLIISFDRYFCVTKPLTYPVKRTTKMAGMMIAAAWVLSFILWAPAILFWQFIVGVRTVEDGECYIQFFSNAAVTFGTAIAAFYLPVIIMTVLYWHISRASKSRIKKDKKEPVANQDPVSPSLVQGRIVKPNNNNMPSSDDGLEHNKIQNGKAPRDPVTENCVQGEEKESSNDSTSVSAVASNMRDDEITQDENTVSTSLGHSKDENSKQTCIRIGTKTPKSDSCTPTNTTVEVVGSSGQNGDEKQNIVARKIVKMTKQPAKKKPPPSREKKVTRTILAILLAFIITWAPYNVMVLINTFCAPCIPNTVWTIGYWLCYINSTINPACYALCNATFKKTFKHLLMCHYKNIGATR

[14] = target: Muscarinic acetylcholine receptor M4 (Homo sapiens) (UniProt P08173); assay: Muscarinic M4 receptors (h) CEREP ligand profiling; conditions: Compound concentration 10.0 uM
Chain of Muscarinic acetylcholine receptor M4 (Homo sapiens) (P08173 whole entry): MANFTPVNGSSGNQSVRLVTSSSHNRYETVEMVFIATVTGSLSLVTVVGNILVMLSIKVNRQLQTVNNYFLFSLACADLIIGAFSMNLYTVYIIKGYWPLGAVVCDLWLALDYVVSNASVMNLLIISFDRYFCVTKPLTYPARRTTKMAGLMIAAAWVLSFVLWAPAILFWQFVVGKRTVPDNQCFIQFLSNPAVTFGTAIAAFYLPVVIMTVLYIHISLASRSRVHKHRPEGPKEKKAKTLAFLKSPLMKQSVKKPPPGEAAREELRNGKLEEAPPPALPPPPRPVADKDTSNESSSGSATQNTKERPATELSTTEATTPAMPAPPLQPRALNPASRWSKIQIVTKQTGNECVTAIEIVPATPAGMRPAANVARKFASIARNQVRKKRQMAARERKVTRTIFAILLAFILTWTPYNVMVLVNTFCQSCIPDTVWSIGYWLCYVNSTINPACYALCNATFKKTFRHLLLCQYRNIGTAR

[15] = target: Substance-P receptor (Homo sapiens) (UniProt P25103); assay: Neurokinin-1 receptor (h) CEREP ligand profiling; conditions: Compound concentration 10.0 uM
[16] = target: Neuropeptide Y receptor type 1 (Homo sapiens) (UniProt P25929); assay: Y1 receptor CEREP ligand profiling; conditions: Compound concentration 10.0 uM
[17] = target: Neuropeptide Y receptor type 2 (Homo sapiens) (UniProt P49146); assay: Y2 receptor CEREP ligand profiling; conditions: Compound concentration 10.0 uM
[18] = target: Neurotensin receptor (Homo sapiens) (UniProt O95665+P30989); assay: Neurotensin receptor (h) CEREP ligand profiling; assay type: protein assay; conditions: Compound concentration 10.0 uM
[19] = target: Delta-type opioid receptor (Homo sapiens) (UniProt P41143); assay: delta-Opioid receptor (h) CEREP ligand profiling; conditions: Compound concentration 10.0 uM
Chain of Delta-type opioid receptor (Homo sapiens) (P41143 whole entry): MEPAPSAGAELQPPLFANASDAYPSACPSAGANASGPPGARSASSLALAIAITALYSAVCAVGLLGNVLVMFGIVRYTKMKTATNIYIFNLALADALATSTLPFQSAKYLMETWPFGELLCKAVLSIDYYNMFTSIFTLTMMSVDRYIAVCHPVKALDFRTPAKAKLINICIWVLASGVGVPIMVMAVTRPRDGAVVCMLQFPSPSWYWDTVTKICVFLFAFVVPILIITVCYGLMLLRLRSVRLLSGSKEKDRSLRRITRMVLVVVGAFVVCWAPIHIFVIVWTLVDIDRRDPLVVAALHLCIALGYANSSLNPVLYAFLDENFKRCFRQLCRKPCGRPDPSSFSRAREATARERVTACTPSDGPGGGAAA

[20] = target: Kappa-type opioid receptor (Homo sapiens, UniProt P41145); assay: kappa-Opioid receptor (h) CEREP ligand profiling; conditions: Compound concentration 10.0 uM
[21] = target: Prostacyclin receptor (Homo sapiens) (UniProt P43119); assay: Prostaglandin I2 receptor CEREP ligand profiling; conditions: Compound concentration 10.0 uM
[22] = target: P2Y receptor (Homo sapiens) (UniProt Q9H244+P51582+P47900+P41231+Q15391+Q15077+Q96G91+Q9BPV8); assay: P2Y-purinergic receptor CEREP ligand profiling; assay type: protein assay; conditions: Compound concentration 10.0 uM
[23] = target: T2, 5-hydroxytryptamine receptor 1A (Homo sapiens) (UniProt P08908); assay: 5-Hydroxytryptamine1A (h) CEREP ligand profiling; conditions: Compound concentration 10.0 uM
T2 sequence (whole entry): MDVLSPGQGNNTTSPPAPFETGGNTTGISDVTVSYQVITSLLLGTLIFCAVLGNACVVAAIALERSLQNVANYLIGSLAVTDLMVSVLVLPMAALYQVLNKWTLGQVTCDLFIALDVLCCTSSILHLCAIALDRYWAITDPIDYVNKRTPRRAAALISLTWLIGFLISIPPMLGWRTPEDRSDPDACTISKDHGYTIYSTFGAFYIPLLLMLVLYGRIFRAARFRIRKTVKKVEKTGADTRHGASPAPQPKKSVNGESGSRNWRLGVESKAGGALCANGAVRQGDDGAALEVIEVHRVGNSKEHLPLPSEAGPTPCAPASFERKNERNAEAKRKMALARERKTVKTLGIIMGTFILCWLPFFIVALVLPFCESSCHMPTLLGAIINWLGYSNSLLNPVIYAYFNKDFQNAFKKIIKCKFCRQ

[24] = target: Calcium-activated potassium channel (Homo sapiens) (UniProt Q92952+Q9UGI6+Q12791+O15554+Q9H2S1+A8MYU2); assay: K+ channel (Ca2+-dependent) CEREP ligand profiling; assay type: protein assay; conditions: Compound concentration 10.0 uM
Sodium channel (site 1) = Sodium channel (site 1) (Homo sapiens, UniProt P35498+P35499+Q01118+Q14524+Q15858+Q99250+Q9NY46+Q9UI33+Q9UQD0+Q9Y5Y9); assay: Na+ channel (site1) CEREP ligand profiling; assay type: protein assay; conditions: compound concentration 10 uM
[25] = Cl- ionophore CEREP ligand profiling; conditions: Compound concentration 10.0 uM
[26] = target: 5-hydroxytryptamine receptor 7 (Homo sapiens) (UniProt P34969); conditions: Compound concentration 10.0 uM
Chain of 5-hydroxytryptamine receptor 7 (Homo sapiens) (P34969 whole entry): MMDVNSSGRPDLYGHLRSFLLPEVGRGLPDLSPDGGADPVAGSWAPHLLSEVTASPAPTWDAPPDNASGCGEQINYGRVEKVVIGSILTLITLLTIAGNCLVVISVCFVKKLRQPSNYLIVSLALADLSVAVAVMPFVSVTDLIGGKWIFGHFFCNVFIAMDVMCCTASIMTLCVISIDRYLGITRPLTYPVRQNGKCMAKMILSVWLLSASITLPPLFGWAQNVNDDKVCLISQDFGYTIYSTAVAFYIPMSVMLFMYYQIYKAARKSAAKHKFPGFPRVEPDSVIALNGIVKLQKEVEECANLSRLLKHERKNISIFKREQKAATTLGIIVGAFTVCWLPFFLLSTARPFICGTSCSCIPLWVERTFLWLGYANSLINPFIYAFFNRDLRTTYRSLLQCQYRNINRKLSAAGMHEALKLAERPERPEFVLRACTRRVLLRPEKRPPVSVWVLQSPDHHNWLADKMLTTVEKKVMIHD

[27] = target: GABA-A receptor; anion channel (Rattus norvegicus) (UniProt O09028+P15431+P18506+P18508+P19969+P20236+P23574+P23576+P28471+P28473+P30191+P62813+P63079+P63138+Q91ZM7+Q9ES14); conditions: Compound concentration 10.0 uM
[28] = target: Beta-1 adrenergic receptor (Homo sapiens) (UniProt P08588); conditions: Compound concentration 10.0 uM
[29] = target: Muscarinic acetylcholine receptor M4 (Homo sapiens) (UniProt P08173); conditions: Compound concentration 10.0 uM
[30] = target: Endothelin-1 receptor (Homo sapiens) (UniProt P25101); conditions: Compound concentration 10.0 uM
Chain of Endothelin-1 receptor (Homo sapiens) (P25101 whole entry): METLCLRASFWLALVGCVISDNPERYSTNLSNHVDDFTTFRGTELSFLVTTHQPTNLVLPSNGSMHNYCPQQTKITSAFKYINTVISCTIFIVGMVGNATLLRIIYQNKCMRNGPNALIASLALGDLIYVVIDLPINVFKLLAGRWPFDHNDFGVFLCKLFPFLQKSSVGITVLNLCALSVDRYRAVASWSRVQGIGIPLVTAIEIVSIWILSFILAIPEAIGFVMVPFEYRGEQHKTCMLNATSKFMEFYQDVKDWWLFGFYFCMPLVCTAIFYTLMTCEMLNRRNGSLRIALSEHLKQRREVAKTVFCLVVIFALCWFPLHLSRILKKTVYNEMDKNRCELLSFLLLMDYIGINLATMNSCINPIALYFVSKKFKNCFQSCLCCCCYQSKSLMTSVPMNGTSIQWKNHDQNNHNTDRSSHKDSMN

Chain of 5-hydroxytryptamine receptor 2B (P41595 whole entry): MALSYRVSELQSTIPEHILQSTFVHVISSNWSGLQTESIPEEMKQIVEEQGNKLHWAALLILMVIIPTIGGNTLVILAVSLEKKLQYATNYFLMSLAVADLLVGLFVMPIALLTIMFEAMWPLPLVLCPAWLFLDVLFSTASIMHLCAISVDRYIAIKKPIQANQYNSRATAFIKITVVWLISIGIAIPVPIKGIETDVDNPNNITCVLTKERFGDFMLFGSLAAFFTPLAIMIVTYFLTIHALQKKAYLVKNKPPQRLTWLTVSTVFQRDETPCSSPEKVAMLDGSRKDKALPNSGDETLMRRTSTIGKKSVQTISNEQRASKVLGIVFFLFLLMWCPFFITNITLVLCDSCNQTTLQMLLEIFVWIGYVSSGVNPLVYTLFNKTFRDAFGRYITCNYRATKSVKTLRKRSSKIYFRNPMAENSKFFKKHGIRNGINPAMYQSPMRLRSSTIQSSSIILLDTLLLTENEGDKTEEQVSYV
Chain of D(4) dopamine receptor (P21917 whole entry): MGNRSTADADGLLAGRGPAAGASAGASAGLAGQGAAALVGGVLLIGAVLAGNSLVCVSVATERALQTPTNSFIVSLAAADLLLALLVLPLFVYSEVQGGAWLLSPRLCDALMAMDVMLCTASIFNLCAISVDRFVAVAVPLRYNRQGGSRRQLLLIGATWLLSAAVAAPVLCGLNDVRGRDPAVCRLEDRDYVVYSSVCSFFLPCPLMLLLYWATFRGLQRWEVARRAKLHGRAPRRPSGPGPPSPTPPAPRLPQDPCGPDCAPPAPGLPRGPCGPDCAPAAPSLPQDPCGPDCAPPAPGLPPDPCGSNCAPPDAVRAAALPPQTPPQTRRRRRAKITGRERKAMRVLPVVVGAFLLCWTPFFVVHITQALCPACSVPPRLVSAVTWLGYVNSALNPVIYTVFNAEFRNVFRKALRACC

CCCCN(CCCC)C(=O)CN1C[C@@H](c2cc(OC)c3c(c2)OCO3)[C@H](C(=O)O)[C@H]1CC(C)(C)CCC [A-545]
Ki ([1]; read-out: Ki): 6.52 µM
Ki ([1]; read-out: pKi (converted)): 5.82 µM
Ki (D(4) dopamine receptor): 0.0055 µM
Ki [2]: 0.298 µM
inhibition [3]: -3.72%
inhibition [4]: 56.1%

CCCCN(CCCC)C(=O)CN1C[C@H](c2cc(OC)c3c(c2)OCO3)[C@@H](C(=O)O)[C@@H]1CC(C)(C)CCC [ABT-546]
Kd [5]: > 10 µM (not active)
inhibition [6]: < 10%
inhibition [7]: < 10%
inhibition [8]: < 10%
inhibition [9]: < 10%
inhibition [10]: < 10%
inhibition [11]: 12%
inhibition [12]: < 10%
inhibition [13]: < 10%
inhibition [14]: < 10%
inhibition [15]: < 10%
inhibition [16]: < 10%
inhibition [17]: < 10%
inhibition [18]: < 10%
inhibition [19]: 62%
inhibition [20]: 28%
inhibition [21]: 15%
inhibition [22]: < 10%
inhibition [23]: < 10%
inhibition [24]: < 10%
inhibition at 10 µM (Sodium channel (site 1)): 22% (not active)
inhibition [25]: 61%
inhibition [26]: -2.24%
inhibition [27]: -5.72%
inhibition [28]: -6.6%
inhibition [29]: 8.5%
inhibition [30]: 98%
